In patent publication US6403831B1, “Substituted benzylidene indenyl formamides, acetamides and propionamides” (Cell Pathways, Inc., priority 1996, dated 2002):
Marks after values point to notes of the source that are not given here.

Tests used:
[1] = system: SW-480 colon adenocarcinoma cells; experiment: Apoptosis by DNA fragmentation (Cell Death Detection ELISA plus); format: cell-based, human; conditions: SW-480 cells, 48 hrs; for EC50: by software or estimated from effective concentration range; for DNA Fragmentation FS (100 μM): fold stimulation FS=ODmax/ODveh
Description: Apoptosis was also measured based on the amount of fragmented DNA contained in cell lysates. Briefly, SW-480 colon adenocarcinoma cells were plated in 96-well microtitre plates (“MTP”) at a density of 10K cells/well in 180 μl and incubated for 24 hrs. Cells were then treated with 20 μl aliquots of appropriately diluted compound, and allowed to incubate for an additional 48 hrs.
After the incubation, samples were prepared according to the following steps. The MTP was centrifuged (15 min., 1000 rpm) and the supernatant was carefully removed by fast inversion of the MTP. The cell pellents in each well were then resuspended in ^200 μl lysis buffer and incubated for 45 min. at room temperature to lyse the cells. The lysates were then centrifuged (15 min., 1000 rpm) and 20 μl aliquots of the supernatant (=cytoplasmic fraction) were transferred into the streptavidin coated MTP for analysis. Care was taken not to shake the lysed pellets in the MTP (=cell nucleii containing high molecular weight, unfragmented DNA). Samples were analyzed immediately, because storage at 4 C or −20 C reduces the ELISA-signals.
Samples were then processed according to a DNA fragmentation assay protocol, and dose-response curves were generated based on optical density readings. Quantification of DNA was done by a commercially available photometric enzyme-immunoassay manufactured by Mannheim-Boehringer under the name “Cell Death Detection ELISA^plus”. The assay is based on a quantitative sandwich-enzyme-immunoassay-principle using mouse monoclonal antibodies directed against DNA and histones, respectively. This allows the specific determination of mono and oligonucleosomes in the cytoplasmatic fraction of cell lysates. In brief, the assay procedure is as follows. The sample (cell-lysate, serum, culture-supernatant etc.) is placed into a streptavidin-coated MTP. Subsequently, a mixture of anti-histone-biotin and anti-DNA-POD are added and incubated for 2 hours. During the incubation period, the anti-histone antibody binds to the histone-component of the nucleosomes and simultaneously fixes the immunocomplex to the streptavidin-coated MTP via its biotinylation. Additionally, the anti-DNA-POD antibody reacts with the DNA component of the nucleosomes. After removal of unbound antibodies by a washing step, the amount of nucleosomes is quantified by the POD retained in the immunocomplex. POD is determined photometrically with ABTS® (2,2′-Azino-di[3-ethylbenzthiazolin-sulfonat])* as substrate.
Fold stimulation (FS=ODmax/ODveh), an indicator of apoptotic response, was determined for each compound tested. EC50 values were determined either specifically by data analysis software, or by estimates based on the effective concentration range of each compound (ECR=min. effective dose-min. dose to peak effect). These FS and EC50 values for the tested compounds are listed above in Table 6.

[2] = target: T1, COX I (Ovis aries, UniProt P05979); experiment: Cyclooxygenase (COX) inhibition, purified COX; format: biochemical; conditions: purified COX from ram seminal vesicles; for COX I % Inhibition (100 μM): 100 μM test compound, arachidonic acid 100 μM; for COX I % Inhibition (values marked *): values marked *: 1000 μM test compound
T1 construct: The COX was purified form ram seminal vesicles; from tissue; host or cells: ram seminal vesicles
T1 sequence (P05979 25-600): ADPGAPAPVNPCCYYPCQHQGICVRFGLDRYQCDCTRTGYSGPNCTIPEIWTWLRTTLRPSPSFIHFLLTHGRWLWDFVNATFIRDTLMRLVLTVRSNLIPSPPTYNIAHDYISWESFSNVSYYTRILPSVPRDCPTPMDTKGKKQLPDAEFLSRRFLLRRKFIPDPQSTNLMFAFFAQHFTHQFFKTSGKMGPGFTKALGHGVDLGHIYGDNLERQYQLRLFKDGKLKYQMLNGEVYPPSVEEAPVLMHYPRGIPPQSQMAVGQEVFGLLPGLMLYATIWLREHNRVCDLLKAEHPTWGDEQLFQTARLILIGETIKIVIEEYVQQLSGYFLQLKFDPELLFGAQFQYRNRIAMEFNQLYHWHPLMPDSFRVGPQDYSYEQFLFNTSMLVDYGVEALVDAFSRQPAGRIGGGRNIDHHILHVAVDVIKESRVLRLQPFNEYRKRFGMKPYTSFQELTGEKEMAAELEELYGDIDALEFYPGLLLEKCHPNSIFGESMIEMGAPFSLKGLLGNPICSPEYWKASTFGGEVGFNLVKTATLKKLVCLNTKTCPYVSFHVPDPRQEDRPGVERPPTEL
Outline: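 Ram seminal vesicle COX, purified, was incubated 2.0 min at 37° C with 100 μM arachidonic acid with or without test compounds. Reactions stopped with TCA; activity read as absorbance at 530 nm.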

[3] = system: HT-29 human colon carcinoma cells; experiment: Apoptosis by morphology (acridine orange/ethidium bromide, condensed chromatin); format: cell-based; conditions: HT-29 cells
Description: Apoptosis was measured using an assay of cell death based on morphological characteristics of apoptotic cells (i.e., condensed chromatin). Drug preparation and cell culture conditions were the same as for the SRB assay described above, except that HT-29 human colon carcinoma cells were employed/Confluent cultures were established in 12.5 cm^2 flasks by plating 0.5×10^6 cells/flask. The cultures were assayed for apoptosis by fluorescent microscopy following labeling with acridine orange and ethidium bromide. Floating and attached cells were collected by trypsinization and washed three times in PBS. One ml aliquots were centrifuged (3 g). The pellet was resuspended in 25 μl media and 1 μl of a dye mixture containing 100 μg/ml acridine orange and 100 μg/ml ethidium bromide prepared in PBS and mixed gently. Ten μl of mixture was placed on a microscope slide and covered with a 22 mm^2 coverslip and examined under 40×dry objectives using epillumination and filter combination.
An observer blinded to the identity of the treatments scored at least 100 cells per sample. Apoptotic cells were identified by nuclear condensation of chromatin stained by the acridine orange or ethidium bromide.

[4] = system: human colon carcinoma cell line, SW-480; experiment: Growth inhibition, Sulforhodamine B (SRB) protein binding assay; format: cell-based; conditions: SW-480 cell line, six days continuous exposure
Description: These compounds were assayed for their growth inhibitory activity on the human colon carcinoma cell line, SW-480 obtained from ATCC (Rockville, Md.), to ascertain the degree of growth inhibition. Growth inhibition of this cell line is indicative of a benefit on precancerous lesions and neoplasms. The cell line and growth assay employed for these experiments are well characterized, and are used to evaluate the anti-neoplastic properties of NSAIDs. The assay is used by the United States National Cancer Institute in its screening program for new anti-cancer drugs.
Drug stock solutions were made in 100% DMSO then diluted with RPMI media for cell culture testing. All drug solutions were prepared fresh on the day of testing. The cultured cells were obtained at passage #99 and grown in RPMI media supplemented with 5% fetal calf serum, and 2 mM glutamine, 100 U/ml penicillin, 100 U/ml streptomycin, and 0.25 μg/ml amphotericin. The cultures were maintained in a humidified atmosphere of 95% air and 5% CO2 at 37° C. The cultures were passaged at preconfluent densities using a solution of 0.05% trypsin and 0.53 mM EDTA. Cells were plated at 1000 cells/well for 96 well flat-bottom microtiter plates.
Tumor cell growth inhibition was assessed using the Sulforhodamine B (SRB) protein binding assay. In this assay, tumor cells were plated in 96-well plates and treated with drug-containing media for six days (continuous exposure). For each plate, 6 wells were designated as no treatment controls, six wells as vehicle (0.1% DMSO) controls, and the remaining wells for drug dilutions with three wells per drug concentration. At the end of the exposure period, the cells were fixed and stained with sulforhodamine B, a protein binding dye. The dye was then solubilized, and the optical density of the resulting solution was determined on a 96-well plate reader. The mean dye intensity of the treated wells was then divided by the mean dye intensity in the control wells (6 wells of each) to determine the effect of the drug on the cells. Dye intensity is proportional to the number of cells or amount of protein per well. The resultant “percent inhibition” value then represents the degree of growth inhibition caused by the drug.
For each experiment, an IC50 value was determined and used for comparative purposes. This value is equivalent to the concentration of drug needed to inhibit tumor cell growth by 50%. IC50 values were obtained graphically by connecting the mean values for each drug concentration tested. Each experiment included at least three wells per drug concentration. Concentration was plotted on a log scale on the X-axis.

Row | Structure (SMILES) | COX I % Inhibition (100 μM) [2] [%] | IC50 [4] [µM] | COX I % Inhibition (values marked *) [2] | EC50 [1] [µM] | DNA Fragmentation FS (100 μM) [1] | Morphology % Apoptotic Cells (1 μM) [3] [%]
1 | COc1cc(/C=C2/C(C)=C(CC(=O)NCc3cc(F)ccc3F)c3cc(F)ccc32)cc(OC)c1OC [Example 8, (Z)-5-fluoro-2-methyl-1-(3,4,5-trimethoxybenzylidene)-3-(N-2,5-difluorobenzyl)-indenylacetamide] | <25 | 0.12 | – | 0.21 | <2 | 48
2 | COc1cc(/C=C2/C(C)=C(CC(=O)N(CCC#N)Cc3ccccc3)c3cc(F)ccc32)cc(OC)c1OC [Example 37, (Z)-5-fluoro-2-methyl-1-(3,4,5-trimethoxybenzylidene)-3-(N-benzyl-N-(2-cyanoethyl))-indenylacetamide] | – | > 10 | 38* % | > 10 | 2.5 | <20
3 | COc1ccccc1CNC(=O)CC1=C(C)/C(=C/c2cc(OC)c(OC)c(OC)c2)c2ccc(F)cc21 [Example 15, (Z)-5-fluoro-2-methyl-1-(3,4,5-trimethoxybenzylidene)-3-(N-2-methoxybenzyl)-indenylacetamide] | <25 | 0.39 | – | 0.3 | 2.1 | 72
4 | COc1cc(/C=C2/C(C)=C(CC(=O)NCc3ccccc3Cl)c3cc(F)ccc32)cc(OC)c1OC [Example 4, (Z)-5-fluoro-2-methyl-1-(3,4,5-trimethoxybenzylidene)-3-(N-2-chlorobenzyl)-indenylacetamide] | <25 | 0.36 | – | 0.25 | 2.4 | 68
5 | COc1ccc(CN(C(=O)CC2=C(C)/C(=C/c3cc(OC)c(OC)c(OC)c3)c3ccc(F)cc32)c2ccccn2)cc1 [Example 35, (Z)-5-fluoro-2-methyl-1-(3,4,5-trimethoxybenzylidene)-3-(N-4-methoxybenzyl-N-(2-pyridinyl))-indenylacetamide] | – | > 10 | 37* % | > 10 | <2 | 40

Second part, led by results:

Row | COX I % Inhibition (100 μM) [2] [%] | IC50 [4] [µM] | COX I % Inhibition (values marked *) [2] | Structure (SMILES) | EC50 [1] [µM] | DNA Fragmentation FS (100 μM) [1] | Morphology % Apoptotic Cells (1 μM) [3] [%]
6 | – | > 10 | 59* % | COc1cc(/C=C2/C(C)=C(CC(=O)NCCCCc3ccccc3)c3cc(F)ccc32)cc(OC)c1OC [Example 41, (Z)-5-fluoro-2-methyl-1-(3,4,5-trimethoxybenzylidene)-3-(N-4-phenylbutyl)-indenylacetamide] | > 10 | <2 | 30
7 | – | > 10 | 59* % | COc1cc(/C=C2/C(C)=C(CC(=O)NCCc3ccccc3)c3cc(F)ccc32)cc(OC)c1OC [Example 39, (Z)-5-fluoro-2-methyl-1-(3,4,5-trimethoxybenzylidene)-3-(N-2-phenylethyl)-indenylacetamide] | > 10 | 2 | 31
8 | – | > 10 | 36* % | COc1cc(/C=C2/C(C)=C(CC(=O)N[C@@H](C)c3ccccc3)c3cc(F)ccc32)cc(OC)c1OC [Example 43, (Z)-5-fluoro-2-methyl-1-(3,4,5-trimethoxybenzylidene)-3-(N-(S)-1-phenylethyl)-indenylacetamide] | > 10 | <2 | 25
9 | – | > 10 | 98* % | COc1cc(/C=C2/C(C)=C(CC(=O)N[C@@H](O)Cc3ccccc3)c3cc(F)ccc32)cc(OC)c1OC [Example 46, (Z)-5-fluoro-2-methyl-1-(3,4,5-trimethoxybenzylidene)-3-(N-(S)-1-hydroxy-2-phenylethyl)-idenylacetamide] | > 10 | 4.8 | 20
10 | – | 2.2 | 58* % | COc1cc(/C=C2/C(C)=C(CC(=O)NCc3ccccc3F)c3cc(F)ccc32)cc(OC)c1OC [Example 32, (Z)-5-fluoro-2-methyl-1-(3,4,5-trimethoxybenzylidene)-3-(N-2-fluorobenzyl)-indenylacetamide] | 0.32 | 2.5 | 55
11 | – | 0.69 | 49* % | COc1cc(/C=C2/C(C)=C(CC(=O)N[C@H](C)c3ccccc3)c3cc(F)ccc32)cc(OC)c1OC [Example 42, (Z)-5-fluoro-2-methyl-1-(3,4,5-trimethoxybenzylidene)-3-(N-(R)-1-phenethyl)-indenylacetamide] | 3 | 3.8 | <20
